According to patent publication US9598399B2, “Compound suitable for detection of mitochondrial complex-1” (HAMAMATSU PHOTONICS K.K., priority 2012, dated 2017):

Columns and labels:
mitochondrial Complex-1 [1] = assay: Autoradiography using living rat brain slices, inhibition of probe binding by rotenone; conditions: for binding inhibitory effect by rotenone on probe binding: rotenone 2-20000 nM, probe 1 MBq/ml, FIGS. 3 and 4
Protocol: A rat was anesthetized with chloral hydrate (400 mg/kg; I.P.) and decapitated. Thereafter, the brain was immediately sampled and cooled sufficiently, and the cooled brain was immersed in ACSF (artificial cerebrospinal fluid) in a sherbet state. A necessary block of the obtained brain was cut and adhered to a fixing platform of a vibration microtome HM650V (Thermo Fisher Scientific, Inc., Waltham, USA). Thereafter, brain slices having a thickness of 300 μm were produced. The cut brain slices were immersed in 24 ml of ACSF for 30 minutes under bubbling with O2, and thus the activities of cells were calmed. Thereafter, 20 μL of Vehicle or Rotenone (adjusted to concentrations of 2 nM, 20 nM, 200 nM, and 20000 nM in respective beakers) was added to ACSF, and the mixture was bubbled for 30 minutes. Furthermore, 1 MBq/ml of [^18F]BMS or [^18F]BCPP-EF was added to the ACSF, and bubbling was continued for 30 minutes. After completion of the bubbling, the brain slices were taken out and transferred to 100 ml of fresh ACSF. Subsequently, excess RI was washed away by bubbling the ACSF for another 30 minutes. Thereafter, the brain slices were arranged in a row on an OHP sheet, and an image thereof was captured with a scanner (Epson: GT-600). Subsequently, the OHP sheet having the brain slices arranged in a row thereon was placed on an imaging plate (ST-VI, Fujifilm Corp., Tokyo) having sensitivity to radiation, and the OHP sheet was left to stand for about one hour in the dark (contact). The imaging plate was subjected to detection with a Fluoro Image Analyzer, FLA-7000 (Fujifilm Corp., Tokyo).

[2] = tested on: site of ischemic disorder in the brain; assay: PET analysis of rat cerebral infarction (PIT) model with blocked middle cerebral artery; type: in vivo; conditions: for accumulation of probe in site of ischemic disorder: Normal, Day-1, Day-7, PET 60 minutes
Protocol: The rat was subjected to anesthesia induction using 4% halothane (30% O2, 70% room air), and during the surgery, the halothane concentration was maintained at 1.5% to 2%. The skin was incised along the left eye cavity margin under a surgical microscope, and an elliptical window (hole) having a size of about 3 mm was cut open in the lower cranium using a dental drill so that the left middle cerebral artery could be seen under the dura mater. Photosensitizer Rose Bengal (20 mg/kg) was administered through the tail vein of the rat, the middle cerebral artery was irradiated with green light having a wavelength of 540 nm for 10 minutes, and thus cerebral infarction was developed in the rat.
In the respective rats before the onset of cerebral infarction (Normal), 1 day after the onset of cerebral infarction (Day-1), and 7 days after the onset of cerebral infarction (Day-7), glucose metabolism (using [^18F]FDG as a probe) and the activity of mitochondrial Complex-1 (using [^18F]BMS or [^18F]BCPP-EF as a probe) in the sites of ischemic disorder in the brain were monitored by the PET method. Specifically, each of the probes was bolus administered in an amount of 6 to 8 MBq/animal through the tail vein of the rat, and the analysis was carried out for 60 minutes. During the analysis, the rat was inactivated by continuously administering chloral hydrate (100 mg/kg/hr) through the tail vein of the rat.

mitochondrial Complex-1 [3] = assay: PET experiment on inhibition of binding to mitochondrial Complex-1 by rotenone administration in monkey brain; type: in vivo; conditions: compared with [18F]BMS
Protocol: (§1) Cephalic vein or saphenous vein was secured as the route of intravenous administration to the test animal, and femoral artery or posterior tibial artery was secured as the route for collecting arterial blood. First, the amount of radioactivity of [^18F]BMS, [^18F]BCPP-EF or [^11C]BCPP-EM was measured. As radioactive agents, [^18F]BMS and [^18F]BCPP-EF were administered through an indwelling needle indwelled in a test animal in an amount of administration of 300 to 500 MBq, and [^11C]BCPP-EM was administered in an amount of administration of 800 to 1200 MBq, such that the entire amount of the radioactive agent was intravenously administered over about 30 seconds. Simultaneously with the initiation of administration of the radioactive agent, measurement of emission (6 frames of 10 seconds, 6 frames of 30 seconds, 12 frames of 1 minute, 25 frames of 3 minutes, and 6 frames of 5 minutes; 55 frames for 121 minutes in total) was initiated.
In the experiment on the inhibition of PET probe binding by rotenone administration in the brain of a monkey, rotenone was administered to the test animal by intravenous injection in an amount of 0.1 mg/kg/hr. Subsequently, [^18F]BMS, [^18F]BCPP-EF or [^11C]BCPP-EM was administered as a probe, and a PET analysis was carried out.

mitochondrial Complex-1 [4] = assay: PET analysis of rotenone-administered rat (brain and heart); type: in vivo; conditions: rat cerebellum, cerebral cortex, corpus striatum and heart; rotenone 0.1 mg/kg/h i.v.; FIGS. 5 and 6
Protocol: A rat was anesthetized with chloral hydrate (400 mg/kg; I.P.) and was immobilized on a bed for measurement. Immediately thereafter, rotenone (0.1 mg/kg/h) or a vehicle was administered through the tail vein of the rat. In order to identify the position of the brain during the administration, an analysis was carried out using Clairvivo-CT (Shimadzu Corp.). Thereafter, the bed for measurement was moved to Clairvivo PET. After the administration of rotenone (0.1 mg/kg/h) or the vehicle was completed, [^18F]BMS or [^18F]BCPP-EF was immediately bolus administered in an amount of about 8 MBq/animal through the tail vein of the rat, and the measurement was carried out for 60 minutes. During the measurement, chloral hydrate (100 mg/kg/hr) was continuously administered through the tail vein of the rat, and thereby the rat was inactivated.

mitochondrial Complex-1 [5] = assay: PET analysis of intracerebral activity of mitochondrial Complex-1 in Parkinson's disease model monkey; type: in vivo, Macaca fascicularis; conditions: Parkinson's disease (MPTP) model monkey versus normal monkey, FIG. 11
Protocol: as §1, with “Simultaneously with the initiation of administration of the radioactive agent, measurement of emission (6 frames of 10 seconds, 6 frames of 30 seconds, 12 frames of 1 minute, 25 frames of 3 minutes, and 6 frames of 5 minutes; 55 frames for 121 minutes in total) was initiated.” left out
A comparison of the intracerebral activity of mitochondrial Complex-1 was made between a normal monkey and a Parkinson's disease model monkey by a PET analysis. […] The degree of motility disturbance in the limbs was evaluated by observing the way that the Macaca fascicularis monkey picked up the feed, and also, by measuring the decrease in the sites of dopamine reabsorption using a PET analysis, it was finally confirmed that the Macaca fascicularis monkey had the condition of Parkinson's disease.

mitochondrial Complex-1 [6] = assay: PET analysis of intracerebral activity of mitochondrial Complex-1 in young and aged monkey; type: in vivo; conditions: young monkey (5 years old) versus aged monkey (22 years old), FIG. 10
Protocol: as §1
The results of a PET analysis obtained from a young monkey (5 years old) and an aged monkey (22 years old) are presented in FIG. 10. [^18F]BCPP-EF was used as the PET probe.

Oil-solubility (log P) = type: physicochemical
mitochondrial Complex-1 [7] = assay: In vitro autoradiography of rat brain slices and in vivo PET of living rat brain (background evaluation of [18F]BMS)
From the text: On the other hand, it has been reported that [^18F]BMS-747158-02 (2-tert-butyl-4-chloro-5-[4-(2-fluoroethoxymethyl)-benzyloxy]-2H-pyridazin-3-one, [^18F]BMS) serves as a PET probe that recognizes mitochondrial Complex-1 (hereinafter, may be referred to as “MC-1”), and this compound is used in a functional evaluation of the brain or the heart (Patent Literature 1 and Non-Patent Literature 1).

Question: Which “binding inhibitory effect by rotenone on probe binding” value (mitochondrial Complex-1 [1]) does the source give for CC(C)(C)n1ncc(OCc2ccc(OCCCC[18F])nc2)c(Cl)c1=O [[^18F]BCPP-BF] here?
Answer: Its value is “affected by the binding inhibitory effect of rotenone”.

Question: With CC(C)(C)n1ncc(OCc2ccc(OCCOCC[18F])nc2)c(Cl)c1=O [[^18F]BCPP-EF] as the molecule, how does the “accumulation of probe in site of ischemic disorder” value ([2]; rat PIT model, FIG. 7) read?
Answer: Its value is “no accumulation of the probe was observed in the site of ischemic disorder”.

Question: And the “degree of accumulation of probe, site of ischemic disorder versus normal site” value ([2]; rat PIT model, compared with [18F]BMS, FIG. 7)?
Answer: The value was “clearly different between a site of ischemic disorder and a normal site”.

Question: What about the “specificity to mitochondrial Complex-1” value (mitochondrial Complex-1 [3]) of the same molecule?
Answer: Its value is “higher specificity to mitochondrial Complex-1 than [^18F]BMS”.

Question: What about the “binding inhibitory effect of rotenone on probe binding” value (mitochondrial Complex-1 [3]; rotenone 0.1 mg/kg/hr i.v., FIGS. 8 and 9) of the same molecule?
Answer: The value was “more likely to be affected by the binding inhibitory effect of rotenone”.

Question: And the “uptake quantity of probe after administration of rotenone” value (mitochondrial Complex-1 [4])?
Answer: Its value is “further reduced by the administration of rotenone than that of [^18F]BMS”.

Question: And the “amount of PET probe accumulating in the brain” value (mitochondrial Complex-1 [5])?
Answer: Its value is “smaller in the Parkinson's disease model monkey, compared with the normal monkey”.

Question: What about the “specificity to mitochondrial Complex-1” value (mitochondrial Complex-1 [1]; compared with [18F]BMS) of the same molecule?
Answer: The value was “higher specificity to mitochondrial Complex-1 than [^18F]BMS”.

Question: And the “binding inhibitory effect by rotenone on probe binding” value (mitochondrial Complex-1 [1])?
Answer: The value was “more likely to be affected by the binding inhibitory effect by rotenone than [^18F]BMS”.

Question: And the “amount of PET probe accumulated in the brain” value (mitochondrial Complex-1 [6])?
Answer: Its value is “a larger amount of the PET probe was accumulated in the brain in the young monkey than in the aged monkey”.

Question: For CC(C)(C)n1ncc(OCc2ccc(COCCF)cc2)c(Cl)c1=O [[^18F]BMS, 2-tert-butyl-4-chloro-5-[4-(2-fluoroethoxymethyl)-benzyloxy]-2H-pyridazin-3-one], which “accumulation of probe in site of ischemic disorder” value ([2]; rat PIT model, FIG. 7) is on record?
Answer: Its value is “no accumulation of the probe was observed in the site of ischemic disorder”.

Question: What about the logP (Oil-solubility (log P)) of the same molecule?
Answer: The logP was 1.42.

Question: And the non-specific binding capacity (mitochondrial Complex-1 [7]; rat brain)?
Answer: Its non-specific binding capacity is “high non-specific binding capacity”.

Question: And the “inhibitory effect in inhibition experiment using rotenone” value (mitochondrial Complex-1 [7]; rotenone, inhibitory drug specific to Complex-1)?
Answer: Its value is “an inhibitory effect cannot be sufficiently checked”.

Question: Which results are given for OC[C@H]1OC(O)[C@H]([18F])[C@@H](O)[C@@H]1O (stereo partly shown) [[^18F]FDG, ^18F-fluorodeoxyglucose]?
Answer: accumulation of probe in site of ischemic injury of the brain ([2]; cerebral infarction model rat, PET, background statement): accumulation of [^18F]FDG is increased; accumulation of probe in site of ischemic disorder ([2]; rat PIT model, FIG. 7): accumulation of [^18F]FDG increased in the site of ischemic disorder
